This note sets out measurements from patent US5482967A, “Condensed heterocyclic compounds, their production and use” (Takeda Chemical Industries, Ltd., priority 1992, dated 1996).

One may read the IC50 as the concentration that inhibits the measured activity by half.

Chain of substance P receptor (P25103 whole entry): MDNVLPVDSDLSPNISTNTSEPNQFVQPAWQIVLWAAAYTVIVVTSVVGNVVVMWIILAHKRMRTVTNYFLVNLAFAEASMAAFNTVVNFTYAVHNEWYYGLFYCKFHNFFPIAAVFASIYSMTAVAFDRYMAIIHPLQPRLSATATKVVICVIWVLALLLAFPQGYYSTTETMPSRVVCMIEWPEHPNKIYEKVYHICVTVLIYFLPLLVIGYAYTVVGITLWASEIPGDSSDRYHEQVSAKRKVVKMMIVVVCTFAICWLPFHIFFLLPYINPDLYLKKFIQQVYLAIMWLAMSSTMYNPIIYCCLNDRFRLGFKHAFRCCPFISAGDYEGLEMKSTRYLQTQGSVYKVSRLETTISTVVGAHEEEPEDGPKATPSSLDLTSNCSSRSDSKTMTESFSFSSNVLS

The target of this assay is substance P receptor (Homo sapiens, UniProt P25103). The experiment in a line: Radioligand receptor binding inhibitory assay using receptor from human lymphoblast cells (IM-9), 125I-BHSP. Particulars: IM-9 receptor, 25° C., 30 minutes. The method, boiled down:
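IM-9 lymphoblast membranes (suspended at 1.5 mg/ml protein) were incubated with 125I-BHSP (0.46 KBq) at 25 °C for 30 min in 50 mM Tris-HCl pH 7.4 with BSA, protease inhibitors and 3 mM MnCl2. Nonspecific binding was defined with 2×10^-6 M substance P. Bound radioactivity was collected on PEI-treated GF/B filters and gamma-counted.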
Turning to `CN(Cc1cc(C(F)(F)F)cc(C(F)(F)F)c1)C(=O)c1[nH]c(=O)c2ccccc2c1-c1ccccc1` [Example 172, N-[3,5-Bis(trifluoromethyl)benzyl]-1,2-dihydro-N-methyl-1-oxo-4-phenyl-3-isoquinolinecarboxamide], the IC50 was found to be 0.5 nM. This lies in the sub-nanomolar range.

The compound `Cc1cc(C)cc(CN(C)C(=O)c2c(-c3ccccc3C)c3ccccc3c(=O)n2C)c1` [Example 106, 1,2-Dihydro-N-(3,5-dimethylbenzyl)-N,2-dimethyl-4-(2-methylphenyl)-1-oxo-3-isoquinolinecarboxamide] registered a 50% inhibitory concentration (IC50) of 30 nM.

The compound `Cc1ccccc1-c1c(C(=O)N(C)Cc2ccccc2Cl)n(C)c(=O)c2ccccc12` [Example 105, N-(2-Chlorobenzyl)-1,2-dihydro-N,2-dimethyl-4-(2-methylphenyl)-1-oxo-3-isoquinolinecarboxsmide] displayed a 50% inhibitory concentration (IC50) of 19 nM.

In turn, `CN(Cc1cc(C(F)(F)F)cc(C(F)(F)F)c1)C(=O)c1c(-c2ccccc2)c2ccccc2oc1=O` [Example 250, N-[3,5-Bis(trifluoromethyl)benzyl]-N-methyl-2-oxo-4-phenyl-2H-1-benzopyran-3-carboxamide] showed an IC50 of 0.9 nM.

For `CN(Cc1cc(C(F)(F)F)cc(C(F)(F)F)c1)C(=O)c1cnc2ccccc2c1-c1ccccc1` [Example 265, N-[3,5-Bis(trifluoromethyl)benzyl]-N-methyl-4-phenyl-3-quinolinecarboxamide], the IC50 was 0.52 nM.

`O=C(NCc1cc(C(F)(F)F)cc(C(F)(F)F)c1)c1oc(=O)c2ccccc2c1-c1ccc(F)cc1` [Example 245, N-[3,5-Bis(trifluoromethyl)benzyl]-4-(4-fluorophenyl)-1-oxo-1H-2-benzopyran-3-carboxamide] gave a half-maximal inhibitory concentration (IC50) of 59 nM.

`CN(Cc1cc(C(F)(F)F)cc(C(F)(F)F)c1)C(=O)[C@@H]1OC(=O)c2ccccc2[C@@H]1c1ccccc1` (relative stereo) [Example 281, 3,4-cis-N-[3,5-Bis(trifluoromethyl)benzyl]-3,4-dihydro-N-methyl-1-oxo-4-phenyl-1H-2-benzopyran-3-carboxamide]: the IC50 worked out at 36 nM.

For the compound `CN(Cc1cc(C(F)(F)F)cc(C(F)(F)F)c1)C(=O)c1nc(Cl)c2ccccc2c1-c1ccccc1` [Example 275, N-[3,5-Bis(trifluoromethyl)benzyl]-1-chloro-N-methyl-4-phenyl-3-isoquinolinecarboxamide], the half-maximal inhibitory concentration (IC50) is 1.9 nM.

`Cc1cc(F)ccc1-c1c(C(=O)NCc2cc(C(F)(F)F)cc(C(F)(F)F)c2)n(C)c(=O)c2ccccc12` [Example 175, N-[3,5-Bis(trifluoromethyl)benzyl]-4-(4-fluoro-2-methylphenyl)-1,2-dihydro-2-methyl-1-oxo-3-isoquinolinecarboxamide] came in with an IC50 of 6.2 nM.

Compound `CCc1ccccc1-c1c(COCc2cc(C(F)(F)F)cc(C(F)(F)F)c2)n(C)c(=O)c2ccccc12` [Example 216, 3,5-Bis(trifluoromethyl)benzyl 4-(2-ethylphenyl)-1,2-dihydro-2-methyl-1-oxo-3-isoquinolinemethyl ether] gave a half-inhibitory concentration (IC50) of 62 nM.

For `CN(Cc1cc(C(F)(F)F)cc(C(F)(F)F)c1)C(=O)c1c(-c2ccccc2)c2ccccc2c(=S)n1C` [Example 285, N-[3,5-Bis(trifluoromethyl)benzyl]-1,2-dihydro-N,2-dimethyl-4-phenyl-1-thioxo-3-isoquinolinecarboxamide], the IC50 amounted to 9.4 nM.

`Cc1cc(C)cc(COCc2c(-c3ccccc3)c3cc(C)c(C)cc3c(=O)n2C)c1` [Example 208, 1,2-Dihydro-2,6,7-trimethyl-1-oxo-4-phenyl-3-isoquinolinemethyl 3,5-dimethylbenzyl ether] registered an IC50 of 140 nM.

Turning to `COc1ccccc1-c1c(C(=O)N(C)Cc2cc(C(F)(F)F)cc(C(F)(F)F)c2)c(=O)oc2ccc(Cl)cc12` [Example 251, N-[3,5-Bis(trifluoromethyl)benzyl]-6-chloro-4-(2-methoxyphenyl)-N-methyl-2-oxo-2H-1-benzopyran-3-carboxamide], the IC50 was 60 nM.

Consider `CN(Cc1cc(C(F)(F)F)cc(C(F)(F)F)c1)C(=O)c1c(-c2ccccc2)c2ccccc2c(=O)n1C` [Example 157, N-[3,5-Bis(trifluoromethyl)benzyl]-1,2-dihydro-N,2-dimethyl-1-oxo-4-phenyl-3-isoquinolinecarboxamide], for which the half-maximal inhibitory concentration (IC50) worked out at 1.2 nM.

Regarding `CN(Cc1cc(C(F)(F)F)cc(C(F)(F)F)c1)C(=O)c1cnc2ccc(Cl)cc2c1-c1ccccc1` [Example 264, N-[3,5-Bis(trifluoromethyl)benzyl]-6-chloro-N-methyl-4-phenyl-3-quinolinecarboxamide], the half-inhibitory concentration (IC50) was determined as 16 nM.

Compound `CSc1nc2ccccc2c(-c2ccccc2)c1C(=O)N(C)Cc1cc(C(F)(F)F)cc(C(F)(F)F)c1` [Example 272, N-[3,5-Bis(trifluoromethyl)benzyl]-N-methyl-2-methylthio-4-phenyl-3-quinolinecarboxamide] returned a 50% inhibitory concentration (IC50) of 23 nM. This IC50 and that of the compound before are within 1.5-fold of each other.

`CN(Cc1cc(C(F)(F)F)cc(C(F)(F)F)c1)C(=O)c1c(-c2ccc(F)cc2)c2c(F)cccc2c(=O)n1C` [Example 188, N-[3,5-Bis(trifluoromethyl)benzyl]-5-fluoro-4-(4-fluorophenyl)-N,2-dimethyl-1-oxo-3-isoquinolinecarboxamide] gave an IC50 of 1.2 nM.

On to `CN(Cc1cc(C(F)(F)F)cc(C(F)(F)F)c1)C(=O)c1ncc2ccccc2c1-c1ccc(F)cc1` [Example 274, N-[3,5-Bis(trifluoromethyl)benzyl]-4-(4-fluorophenyl)-N-methyl-3-isoquinolinecarboxamide], for which the IC50 was 2.3 nM.

`CN(Cc1cc(C(F)(F)F)cc(C(F)(F)F)c1)C(=O)c1c(-c2ccc(F)cc2)c2ccccc2c(=O)n1C` [Example 166, N-[3,5-Bis(trifluoromethyl)benzyl]-4-(4-fluorophenyl)-1,2-dihydro-N,2-dimethyl-1-oxo-3-isoquinolinecarboxamide] gave an IC50 of 0.35 nM.

As for `CN(Cc1cc(C(F)(F)F)cc(C(F)(F)F)c1)C(=O)[C@H]1[C@H](c2ccc(F)cc2)c2ccccc2C(=O)N1C` (relative stereo) [Example 280, 3,4-trans-N-[3,5-Bis(trifluoromethyl)benzyl]-4-(4-fluorophenyl)-1,2,3,4-tetrahydro-N,2-dimethyl-1-oxo-3-isoquinolinecarboxamide], the half-inhibitory concentration (IC50) is 58 nM.

Regarding `CN(Cc1cc(C(F)(F)F)cc(C(F)(F)F)c1)C(=O)c1c(-c2ccccc2)c2ccccc2[nH]c1=O` [Example 258, N-[3,5-Bis(trifluoromethyl)benzyl]-1,2-dihydro-N-methyl-2-oxo-4-phenyl-3-quinolinecarboxamide], the IC50 was 3.1 nM.

`COc1ccccc1-c1c(C(=O)N(C)Cc2cc(C(F)(F)F)cc(C(F)(F)F)c2)oc(=O)c2ccccc12` [Example 244, N-[3,5-Bis(trifluoromethyl)benzyl]-4-(2-methoxyphenyl)-N-methyl-1-oxo-1H-2-benzopyran-3-carboxamide]: the half-maximal inhibitory concentration (IC50) was 1.6 nM.

`CN(Cc1cc(C(F)(F)F)cc(C(F)(F)F)c1)C(=O)c1c(-c2ccccc2)c2c(c(=O)n1C)CCCC2` [Example 186, N-[3,5-Bis(trifluoromethyl)benzyl]-1,2,5,6,7,8-hexahydro-N-2-dimethyl-1-oxo-4-phenyl-3-isoquinolinecarboxamide] came in with a concentration for half-maximal inhibition (IC50) of 1.8 nM.
